Assay results: ChEMBL document CHEMBL1764984 (J Med Chem, 2011)
In brackets after ≈: the same amount, converted by molar mass.

Legend:
[1] = biological target: T1, Mitogen-activated protein kinase 14 (Homo sapiens, UniProt Q16539); assay: Inhibition of human recombinant p38alpha assessed as incorporation of 33P from gamma-[33P]ATP into myelin basic protein after 30 mins by scintillation counting
Blood = assay: Inhibition of TNFalpha-induced IL1-beta production in human whole blood after 2 to 5 hrs by ELISA; type: functional, tissue-based
[2] = biological target: T1, Mitogen-activated protein kinase 14; assay: Inhibition of p38alpha
[3] = biological target: Tyrosine-protein kinase Lck (Homo sapiens, UniProt P06239); assay: Inhibition of LCK
[4] = biological target: T2, Casein kinase I isoform epsilon (Homo sapiens, UniProt P49674); conditions: 10 uM
Description: Inhibition of CSNK1epsilon at 10 uM

[5] = biological target: Ribosomal protein S6 kinase alpha-3 (Homo sapiens, UniProt P51812); assay: Inhibition of RSK2 at 10 uM
[6] = biological target: Serine/threonine-protein kinase NLK (Homo sapiens) (UniProt Q9UBE8); assay: Inhibition of NLK at 10 uM
[7] = biological target: T3, Mitogen-activated protein kinase 11 (Homo sapiens, UniProt Q15759); assay: Inhibition of P38beta at 10 uM
[8] = biological target: Serine/threonine-protein kinase 36 (Homo sapiens) (UniProt Q9NRP7); conditions: 10 uM
Description: Inhibition of STK36 at 10 uM

[9] = biological target: Mitogen-activated protein kinase 9 (Homo sapiens) (UniProt P45984); assay: Inhibition of JNK2 at 10 uM
[10] = biological target: T4, Mitogen-activated protein kinase 10 (Homo sapiens, UniProt P53779); conditions: 10 uM
Description: Inhibition of JNK3 at 10 uM

[11] = biological target: T5, Epithelial discoidin domain-containing receptor 1 (Homo sapiens, UniProt Q08345); assay: Inhibition of DDR1 at 10 uM
[12] = biological target: Cyclin-G-associated kinase (Homo sapiens) (UniProt O14976); assay: Inhibition of GAK at 10 uM
[13] = biological target: Mitogen-activated protein kinase 8 (Homo sapiens) (UniProt P45983); assay: Inhibition of JNK1 at 10 uM
[14] = biological target: T6, Atypical kinase COQ8A, mitochondrial (Homo sapiens, UniProt Q8NI60); conditions: 10 uM
Description: Inhibition of ADCK3 at 10 uM

[15] = biological target: T7, Ribosomal protein S6 kinase alpha-4 (Homo sapiens, UniProt O75676); assay: Inhibition of RSK4 at 10 uM
[16] = biological target: T5, Epithelial discoidin domain-containing receptor 1; assay: Inhibition of DDR1
Rattus norvegicus [17] = assay: Inhibition of LPS-induced IL-6 production in po dosed rat serum administered 30 mins before LPS challenge measured after […] by ELISA; type: functional, organism-based
Rattus norvegicus [18] = assay: Inhibition of LPS-induced TNFalpha production in po dosed rat serum administered 30 mins before LPS challenge measured after […] by ELISA; type: functional, organism-based
Cytochrome P450 1A2 = Cytochrome P450 1A2 (Homo sapiens, UniProt P05177); assay: Inhibition of human CYP1A2; type: ADME
Cytochrome P450 2C19 = Cytochrome P450 2C19 (Homo sapiens, UniProt P33261); assay: Inhibition of human CYP2C19; type: ADME
[19] = biological target: T4, Mitogen-activated protein kinase 10; assay: Inhibition of JNK3
Rattus norvegicus [20] = assay: Inhibition of LPS-induced TNFalpha production in rat serum at 3 mg/kg, po administered 30 mins before LPS challenge measured after […] by ELISA; type: functional
[21] = AUC (infinity) in cynomolgus monkey at 10 mg/kg, po; type: ADME, organism-based, Macaca fascicularis; design: time infinity, dose 10 mg/kg, route oral; conditions: plasma
[22] = Oral bioavailability in cynomolgus monkey at 10 mg/kg; type: ADME, organism-based, Macaca fascicularis; conditions: in vivo
Rattus norvegicus [23] = assay: Analgesic activity in po dosed rat inflammatory yeast hyperalgesia model assessed as increase in tolerance to pressure; type: functional, organism-based; conditions: po
Cytochrome P450 2C9 = Cytochrome P450 2C9 (Homo sapiens, UniProt P11712); assay: Inhibition of human CYP2C9; type: ADME
[24] = Plasma protein binding in cynomolgus monkey by untrafiltration method; type: ADME, cell-free, Macaca fascicularis; conditions: read-out: PPB (converted)
Cytochrome P450 3A4 = Cytochrome P450 3A4 (Homo sapiens, UniProt P08684); assay: Inhibition of human CYP3A4; type: ADME
[25] = Half life in cynomolgus monkey at 10 mg/kg, po; type: ADME, organism-based, Macaca fascicularis; design: dose 10 mg/kg, route oral; conditions: in vivo
[26] = Permeability of the compound from apical to basolateral side of human Caco2 cells at 10 uM after 21 days; type: ADME, cell-based; conditions: Caco-2, read-out: permeability
[27] = biological target: T2, Casein kinase I isoform epsilon; assay: Inhibition of CSNK1epsilon
[28] = Tmax in cynomolgus monkey at 10 mg/kg, po; type: ADME, organism-based, Macaca fascicularis; design: dose 10 mg/kg, route oral; conditions: in vivo
[29] = Volume of distribution at steady state in cynomolgus monkey at 10 mg/kg, iv; type: ADME, organism-based, Macaca fascicularis; design: dose 10 mg/kg, route intravenous; conditions: in vivo, read-out: Vdss
[30] = biological target: T6, Atypical kinase COQ8A, mitochondrial; assay: Inhibition of ADCK3
Target sequence in this assay (Q8NI60 whole entry): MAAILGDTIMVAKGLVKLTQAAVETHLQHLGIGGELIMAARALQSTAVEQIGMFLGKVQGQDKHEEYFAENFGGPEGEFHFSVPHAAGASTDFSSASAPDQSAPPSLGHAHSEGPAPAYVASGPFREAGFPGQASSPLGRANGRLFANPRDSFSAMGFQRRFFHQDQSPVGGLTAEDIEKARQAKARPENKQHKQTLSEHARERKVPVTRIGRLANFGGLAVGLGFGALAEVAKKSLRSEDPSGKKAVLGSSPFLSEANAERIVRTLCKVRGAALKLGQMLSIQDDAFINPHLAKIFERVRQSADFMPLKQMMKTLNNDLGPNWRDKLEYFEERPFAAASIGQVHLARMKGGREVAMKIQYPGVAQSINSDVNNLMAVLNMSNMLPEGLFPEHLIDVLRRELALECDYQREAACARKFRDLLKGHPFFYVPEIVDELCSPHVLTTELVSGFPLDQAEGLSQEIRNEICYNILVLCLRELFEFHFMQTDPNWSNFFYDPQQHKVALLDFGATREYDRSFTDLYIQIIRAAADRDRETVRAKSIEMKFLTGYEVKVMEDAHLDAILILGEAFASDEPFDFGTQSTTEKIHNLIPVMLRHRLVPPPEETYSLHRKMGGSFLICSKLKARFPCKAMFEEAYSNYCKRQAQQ

[31] = biological target: Serine/threonine-protein kinase 36 (Homo sapiens, UniProt Q9NRP7); assay: Inhibition of STK36
[32] = Clearance in cynomolgus monkey at 10 mg/kg, iv; type: ADME, organism-based, Macaca fascicularis; design: dose 10 mg/kg, route intravenous; conditions: in vivo
[33] = Permeability of the compound from basolateral to apical side of human Caco2 cells at 10 uM after 21 days; type: ADME, cell-based; conditions: Caco-2, read-out: permeability
[34] = biological target: T3, Mitogen-activated protein kinase 11; assay: Inhibition of P38beta
[35] = biological target: T7, Ribosomal protein S6 kinase alpha-4; assay: Inhibition of RSK4
THP-1 = assay: Inhibition of LPS-induced TNFalpha production in human THP1 cells after 2 hrs by ELISA; type: functional, cell-based; conditions: THP-1, 2 h
Cytochrome P450 2D6 = Cytochrome P450 2D6 (Homo sapiens, UniProt P10635); assay: Inhibition of human CYP2D6; type: ADME
[36] = Aqueous solubility of the compound in phosphate buffer at pH 6.5; type: physicochemical
Rattus norvegicus [37] = assay: Inhibition of TNF-alpha-induced IL-6 production in po dosed rat plasma administered 30 mins before TNFalpha challenge measured after 2 hrs by ELISA; type: functional, organism-based
[38] = biological target: Serine/threonine-protein kinase NLK (Homo sapiens, UniProt Q9UBE8); assay: Inhibition of NLK
[39] = Cmax in cynomolgus monkey at 10 mg/kg, po; type: ADME, organism-based, Macaca fascicularis; design: dose 10 mg/kg, route oral; conditions: in vivo

T1 sequence (Q16539 whole entry): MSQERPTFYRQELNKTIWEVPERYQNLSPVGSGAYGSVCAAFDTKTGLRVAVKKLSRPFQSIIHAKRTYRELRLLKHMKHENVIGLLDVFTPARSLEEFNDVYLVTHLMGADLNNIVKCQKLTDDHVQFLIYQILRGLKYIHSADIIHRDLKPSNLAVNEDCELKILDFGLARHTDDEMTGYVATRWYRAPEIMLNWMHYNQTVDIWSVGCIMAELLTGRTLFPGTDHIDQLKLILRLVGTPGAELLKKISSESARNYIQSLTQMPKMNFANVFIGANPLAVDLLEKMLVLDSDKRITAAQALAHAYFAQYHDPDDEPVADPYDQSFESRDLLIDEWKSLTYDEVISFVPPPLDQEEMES
T5 sequence (Q08345 whole entry, the tested form may be a part): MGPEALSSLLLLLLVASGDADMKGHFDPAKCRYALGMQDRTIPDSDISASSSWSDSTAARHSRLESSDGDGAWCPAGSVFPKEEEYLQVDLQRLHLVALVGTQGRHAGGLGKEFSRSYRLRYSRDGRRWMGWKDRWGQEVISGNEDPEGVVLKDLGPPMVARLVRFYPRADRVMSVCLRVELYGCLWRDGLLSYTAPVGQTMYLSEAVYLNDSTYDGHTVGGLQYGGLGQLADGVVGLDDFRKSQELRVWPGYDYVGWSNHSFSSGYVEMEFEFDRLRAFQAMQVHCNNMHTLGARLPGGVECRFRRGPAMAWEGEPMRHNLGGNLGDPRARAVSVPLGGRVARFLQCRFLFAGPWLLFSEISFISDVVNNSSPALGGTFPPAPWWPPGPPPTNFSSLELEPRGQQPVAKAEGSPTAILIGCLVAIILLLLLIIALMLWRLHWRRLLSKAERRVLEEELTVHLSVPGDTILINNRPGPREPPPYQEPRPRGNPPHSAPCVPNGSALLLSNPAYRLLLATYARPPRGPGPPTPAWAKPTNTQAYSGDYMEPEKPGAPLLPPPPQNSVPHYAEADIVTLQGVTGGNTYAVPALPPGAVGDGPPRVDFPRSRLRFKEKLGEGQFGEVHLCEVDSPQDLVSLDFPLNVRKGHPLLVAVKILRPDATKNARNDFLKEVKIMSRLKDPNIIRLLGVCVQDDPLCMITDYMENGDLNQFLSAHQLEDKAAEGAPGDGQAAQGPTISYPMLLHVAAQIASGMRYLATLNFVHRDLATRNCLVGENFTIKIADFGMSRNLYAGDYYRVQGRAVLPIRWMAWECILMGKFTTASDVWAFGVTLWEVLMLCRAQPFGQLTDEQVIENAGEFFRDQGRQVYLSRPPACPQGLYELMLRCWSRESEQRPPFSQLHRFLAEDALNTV
T4 sequence (P53779 whole entry, the tested form may be a part): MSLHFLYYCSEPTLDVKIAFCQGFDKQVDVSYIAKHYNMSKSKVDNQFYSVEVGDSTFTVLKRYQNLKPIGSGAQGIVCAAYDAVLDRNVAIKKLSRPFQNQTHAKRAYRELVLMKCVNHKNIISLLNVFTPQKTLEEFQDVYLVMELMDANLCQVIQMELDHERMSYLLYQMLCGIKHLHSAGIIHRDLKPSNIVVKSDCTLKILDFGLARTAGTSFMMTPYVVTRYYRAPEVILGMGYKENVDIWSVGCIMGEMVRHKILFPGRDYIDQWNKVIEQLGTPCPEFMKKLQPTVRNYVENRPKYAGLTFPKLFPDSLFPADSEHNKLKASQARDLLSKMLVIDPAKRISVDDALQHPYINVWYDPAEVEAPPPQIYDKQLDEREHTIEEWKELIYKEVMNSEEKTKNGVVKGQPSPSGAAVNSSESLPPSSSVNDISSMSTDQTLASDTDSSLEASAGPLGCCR
T3 sequence (Q15759 whole entry): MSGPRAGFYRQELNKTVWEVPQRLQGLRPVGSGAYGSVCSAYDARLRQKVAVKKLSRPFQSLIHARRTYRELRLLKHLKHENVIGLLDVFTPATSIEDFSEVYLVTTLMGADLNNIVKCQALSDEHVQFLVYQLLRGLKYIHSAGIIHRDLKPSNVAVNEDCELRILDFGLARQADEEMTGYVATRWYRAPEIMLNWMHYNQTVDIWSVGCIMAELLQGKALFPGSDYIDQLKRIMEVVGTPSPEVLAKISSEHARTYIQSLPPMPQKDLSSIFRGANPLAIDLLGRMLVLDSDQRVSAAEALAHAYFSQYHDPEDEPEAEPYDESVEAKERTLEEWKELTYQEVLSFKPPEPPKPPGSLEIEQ
Chain of Serine/threonine-protein kinase NLK (Q9UBE8 whole entry): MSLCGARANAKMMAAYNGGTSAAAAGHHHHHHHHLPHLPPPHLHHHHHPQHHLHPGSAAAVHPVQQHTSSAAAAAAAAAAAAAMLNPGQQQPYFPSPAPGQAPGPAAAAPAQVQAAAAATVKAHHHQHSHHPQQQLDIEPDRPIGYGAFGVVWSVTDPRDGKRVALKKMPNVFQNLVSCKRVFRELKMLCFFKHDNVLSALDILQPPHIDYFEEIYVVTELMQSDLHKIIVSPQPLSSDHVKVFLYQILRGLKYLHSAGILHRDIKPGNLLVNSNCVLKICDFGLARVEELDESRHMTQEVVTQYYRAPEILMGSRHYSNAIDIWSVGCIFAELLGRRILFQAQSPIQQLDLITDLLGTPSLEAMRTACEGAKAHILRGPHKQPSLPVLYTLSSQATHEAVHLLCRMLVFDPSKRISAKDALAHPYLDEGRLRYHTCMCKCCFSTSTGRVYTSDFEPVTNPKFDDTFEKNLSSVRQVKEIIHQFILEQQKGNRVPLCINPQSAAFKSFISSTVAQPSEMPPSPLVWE
Chain of Serine/threonine-protein kinase NLK (Homo sapiens) (Q9UBE8 whole entry): as above
Chain of Cytochrome P450 2D6 (P10635 whole entry): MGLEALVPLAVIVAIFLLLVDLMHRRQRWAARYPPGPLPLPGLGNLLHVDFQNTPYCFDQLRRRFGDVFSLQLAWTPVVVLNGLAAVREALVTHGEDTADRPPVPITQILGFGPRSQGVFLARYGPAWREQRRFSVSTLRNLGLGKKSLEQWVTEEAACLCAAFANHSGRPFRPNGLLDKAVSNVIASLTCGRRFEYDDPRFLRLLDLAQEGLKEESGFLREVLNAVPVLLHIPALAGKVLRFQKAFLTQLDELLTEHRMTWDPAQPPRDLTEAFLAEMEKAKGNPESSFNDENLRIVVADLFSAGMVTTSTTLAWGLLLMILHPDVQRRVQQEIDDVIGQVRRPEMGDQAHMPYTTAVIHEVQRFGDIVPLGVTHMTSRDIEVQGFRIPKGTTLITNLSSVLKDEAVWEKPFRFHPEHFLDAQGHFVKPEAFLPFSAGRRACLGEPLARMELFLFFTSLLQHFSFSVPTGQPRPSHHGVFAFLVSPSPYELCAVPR
Chain of Cytochrome P450 1A2 (P05177 whole entry): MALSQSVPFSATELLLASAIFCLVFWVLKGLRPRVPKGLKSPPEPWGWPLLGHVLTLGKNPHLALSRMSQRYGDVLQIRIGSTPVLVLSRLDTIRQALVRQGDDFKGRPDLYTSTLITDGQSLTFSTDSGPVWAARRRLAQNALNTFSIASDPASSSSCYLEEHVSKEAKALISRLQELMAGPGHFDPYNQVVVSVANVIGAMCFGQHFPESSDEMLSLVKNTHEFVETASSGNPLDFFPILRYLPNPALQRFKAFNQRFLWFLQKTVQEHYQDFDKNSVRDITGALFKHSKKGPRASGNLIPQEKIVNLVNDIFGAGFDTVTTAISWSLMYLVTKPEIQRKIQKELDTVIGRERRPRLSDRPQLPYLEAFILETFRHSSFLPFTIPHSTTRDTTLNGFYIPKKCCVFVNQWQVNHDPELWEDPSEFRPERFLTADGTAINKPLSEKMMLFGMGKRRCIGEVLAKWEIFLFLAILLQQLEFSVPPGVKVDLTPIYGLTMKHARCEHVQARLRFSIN
Chain of Cytochrome P450 3A4 (P08684 whole entry): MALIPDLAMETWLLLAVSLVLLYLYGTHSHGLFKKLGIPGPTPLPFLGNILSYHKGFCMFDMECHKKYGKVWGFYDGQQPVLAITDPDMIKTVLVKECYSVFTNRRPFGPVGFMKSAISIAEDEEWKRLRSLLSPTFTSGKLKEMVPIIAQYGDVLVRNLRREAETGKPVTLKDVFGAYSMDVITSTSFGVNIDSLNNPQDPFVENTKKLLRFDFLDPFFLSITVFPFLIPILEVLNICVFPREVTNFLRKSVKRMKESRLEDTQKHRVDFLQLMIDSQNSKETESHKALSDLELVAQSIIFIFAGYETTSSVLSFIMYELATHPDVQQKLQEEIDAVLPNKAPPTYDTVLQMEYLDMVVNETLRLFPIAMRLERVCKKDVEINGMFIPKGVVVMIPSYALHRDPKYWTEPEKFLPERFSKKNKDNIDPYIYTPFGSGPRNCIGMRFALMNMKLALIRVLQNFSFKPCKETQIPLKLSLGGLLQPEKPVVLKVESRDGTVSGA

O=c1c(Oc2ccc(F)cc2F)cc2cnc(NC3CCOCC3)nc2n1C1CC1
IC50 [1]: 9 nM
IC50 (Blood): 13 nM

CNc1ncc2cc(Oc3ccc(F)cc3F)c(=O)n(C)c2n1
IC50 [1]: 260 nM

O=c1c(Oc2ccc(F)cc2F)cc2cnc(NC3CCOCC3)nc2n1C1CCS(=O)(=O)CC1
IC50 [1]: 1 nM
IC50 (Blood): 11 nM

C[C@H](Cn1ncnn1)Nc1ncc2cc(Oc3ccc(F)cc3F)c(=O)n(C)c2n1
IC50 (Blood): 318 nM

Cn1c(=O)c(Oc2ccc(F)cc2)cc2cnc(NC3CCOCC3)nc21
IC50 (Blood): 547 nM

CCN(CC)CCOc1ccc(Nc2ncc3c(n2)N(C)C(=O)N(c2c(Cl)cccc2Cl)C3)cc1
Kd [2]: 10 nM
Kd [3]: 0.2 nM

Cn1c(=O)c(Oc2ccc(F)cc2F)cc2cnc(NCC(C)(C)O)nc21
IC50 [1]: 67 nM

Cn1c(=O)c(Oc2ccccc2F)cc2cnc(NC3CCOCC3)nc21
IC50 [1]: 15 nM
IC50 (Blood): 64.8 nM

Cn1c(=O)c(Cc2ccccc2F)cc2cnc(NC3CCOCC3)nc21
IC50 [1]: 42 nM
IC50 (Blood): 407 nM

Cn1c(=O)c(Oc2ccc(F)cc2F)cc2cnc(NC3CCOCC3)nc21
inhibition [4]: > 85%
inhibition [5]: > 85%
inhibition [6]: > 85%
inhibition [7]: > 85%
inhibition [8]: > 85%
inhibition [9]: > 85%
inhibition [10]: > 85%
inhibition [11]: > 85%
inhibition [12]: > 85%
inhibition [13]: > 85%
inhibition [14]: > 85%
inhibition [15]: > 85%

Cn1c(=O)c(Oc2ccc(F)cc2F)cc2cnc(NC3CCOCC3)nc21 [R-1487]
Kd [16]: 270 nM
EC50 (Rattus norvegicus [17]): 10 nM
ED50 (Rattus norvegicus [17]; po): 0.4 mg/kg
EC50 (Rattus norvegicus [18]): 30 nM
ED50 (Rattus norvegicus [18]; po): 0.8 mg/kg
IC50 (Cytochrome P450 1A2): > 40000 nM
IC50 (Cytochrome P450 2C19): > 40000 nM
Kd [19]: 3 nM
inhibition in vivo at 3 mg/kg (Rattus norvegicus [20]): 68%
AUC(0-inf) [21]: 29400 ng·h/mL
bioavailability [22]: 51.6%
ED50 (Rattus norvegicus [23]): 5.5 mg/kg
IC50 (Cytochrome P450 2C9): > 40000 nM
fraction unbound [24]: 0.046
IC50 (Cytochrome P450 3A4): > 40000 nM
half-life [25]: 22.5 h
Papp A→B at 10 µM [26]: 33 ×10⁻⁶ cm/s
Kd [27]: > 1000 nM
Tmax [28]: 4.67 h
Vd [29]: 2.73 L/kg
Kd [30]: 320 nM
Kd [31]: 330 nM
IC50 (Blood): 170 nM
clearance [32]: 3.05 mL/min/kg
Papp B→A at 10 µM [33]: 23.7 ×10⁻⁶ cm/s
Kd [34]: 29 nM
Kd [35]: 73 nM
IC50 (THP-1): 47 nM
IC50 (Cytochrome P450 2D6): > 40000 nM
solubility [36]: 6 µg/mL (≈ 15.4 µM)
EC50 (Rattus norvegicus [37]): 20 nM
ED50 (Rattus norvegicus [37]; po): 0.4 mg/kg
Kd [38]: 6 nM
Cmax [39]: 1560 ng/mL

Cn1c(=O)c(Sc2ccccc2F)cc2cnc(NC3CCOCC3)nc21
IC50 [1]: 111 nM
IC50 (Blood): 731 nM

O=c1[nH]c2nc(NC3CCOCC3)ncc2cc1Oc1ccc(F)cc1F
IC50 [1]: 18 nM
IC50 (Blood): 84 nM

Cn1c(=O)c(Oc2cccc(F)c2)cc2cnc(NC3CCOCC3)nc21
IC50 [1]: 594 nM
IC50 (Blood): 1220 nM

Cn1c(=O)c(Oc2ccc(F)cc2F)cc2cnc(N[C@H]3CCOC3)nc21
IC50 [1]: 31 nM
IC50 (Blood): 373 nM

CCn1c(=O)c(Oc2ccc(F)cc2F)cc2cnc(NC3CCOCC3)nc21
IC50 [1]: 1 nM
IC50 (Blood): 15 nM

Cn1c(=O)c(Cc2ccc(F)cc2F)cc2cnc(NC3CCOCC3)nc21
IC50 [1]: 40 nM
IC50 (Blood): 713 nM

C[C@H](CS(C)(=O)=O)Nc1ncc2cc(Oc3ccc(F)cc3F)c(=O)n(C)c2n1
inhibition in vivo at 3 mg/kg (Rattus norvegicus [20]): 88%
Papp A→B at 10 µM [26]: 13.5 ×10⁻⁶ cm/s
IC50 (Blood): 50 nM
Papp B→A at 10 µM [33]: 22.4 ×10⁻⁶ cm/s
solubility [36]: 18 µg/mL (≈ 42.4 µM)

CS(=O)(=O)CCn1c(=O)c(Oc2ccc(F)cc2F)cc2cnc(NC3CCOCC3)nc21
IC50 [1]: 20 nM
IC50 (Blood): 308 nM
